According to patent publication US20200299671A1, “IMMOBILIZED MULTI-ENZYMATIC HALOGENATION SYSTEM” (priority 2019, published 2020):

Biological target: T1, PltA (Pseudomonas fluorescens, UniProt Q4KCZ0)
T1 construct: expressed in transfected cells; host or cells: E. coli BL21 (DE3)
Test: Cell-based activity assay (Assay 3), PltA negative control
Set-up: species or system E. coli BL21 (DE3)
Conditions: cultures expressing PltA (negative control)
Description: E. coli BL21 (DE3) cells were transformed with ppltM-pET28a, ppltMK87A-pET28a, ppltML111Y-pET28a, ppltMS404Y-pET28a, and ppltA-pET28a. The ppltA-pET28a plasmid overexpressing the halogenase PltA whose substrate is pyrrolyl-S-PltL (a peptidyl carrier protein-linked pyrrole) was used as a negative control. Five colonies from each transformant were cultured in 2×500 mL of LB medium (for ppltM-pET28a, ppltML111Y-pET28a, and ppltMS404Y-pET28a) and 1×500 mL of LB medium (for ppltMK87A-pET28a and ppltA-pET28a) with 50 μg/mL kanamycin at 37° C. and 200 rpm until attenuance of 0.2 at 600 nm. The cultures were then moved to 25° C. until attenuance of 0.5. Protein expression was induced by adding 0.2 mM IPTG to all […] flasks, and the cultures were incubated with shaking for 1 h. 12.5 μg/mL of compound 1 was added to 1×500 mL of LB medium containing ppltM-pET28a, ppltMK87A-pET28a, ppltML111Y-pET28a, ppltMS404Y-pET28a, and ppltA-pET28a. Compound 1 was not added to the three remaining flasks (negative controls). After additional incubation for 20 h, the cells were pelleted at 5,000 g for 10 min, and the supernatant was collected. The supernatant was extracted with EtOAc (3×330 mL), which was dried in vacuo. […]
The halogenation reaction products were analyzed by HPLC or LC-MS by injecting 10 μL of each sample. […]
For HPLC analysis, the molecules were observed by absorbance at λ=275 nm as described above. […]

T1 sequence (Q4KCZ0 whole entry): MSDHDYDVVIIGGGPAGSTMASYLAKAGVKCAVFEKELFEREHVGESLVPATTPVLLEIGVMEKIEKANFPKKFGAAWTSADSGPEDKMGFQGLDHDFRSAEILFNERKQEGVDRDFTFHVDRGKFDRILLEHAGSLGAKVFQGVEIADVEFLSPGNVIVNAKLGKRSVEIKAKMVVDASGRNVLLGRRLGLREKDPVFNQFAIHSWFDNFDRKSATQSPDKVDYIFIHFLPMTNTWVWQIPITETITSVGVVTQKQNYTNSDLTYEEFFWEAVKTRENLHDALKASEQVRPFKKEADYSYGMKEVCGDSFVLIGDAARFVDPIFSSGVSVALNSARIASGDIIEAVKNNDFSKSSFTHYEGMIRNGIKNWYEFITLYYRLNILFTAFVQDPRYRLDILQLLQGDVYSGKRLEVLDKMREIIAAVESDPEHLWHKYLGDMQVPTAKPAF

Oc1cc(O)cc(O)c1 [Compound 1, phloroglucinol]
halogenation in fermentation culture: No halogenated product was observed
